34 compounds from ChEMBL document CHEMBL1124295, “Synthesis and oral antiallergic activity of carboxylic acids derived from imidazo[2,1-c][1,4]benzoxazines, imidazo[1,2-a]quinolines, imidazo[1,2-a]quinoxalines, imidazo[1,2-a]quinoxalinones, pyrrolo[1,2-a]quinoxalinones, pyrrolo[2,3-a]quinoxalinones, and imidazo[2,1-b]benzothiazoles” (1988) can be followed below.

Each structure is given as a SMILES string. The source made the active and inactive calls. No cut-off for these calls is given here.

The subject of test [1] is Rattus norvegicus. The test is described as follows: Inhibition of the IgE-mediated passive cutaneous anaphylaxis (PCA) reaction in rat after intravenous administration; Inactive at 1 and 10 mg/kg. The format is functional, organism-based. On the set-up: dose 10 mg/kg.
Test [2] deals with Rattus norvegicus. The test can be described thus: Inhibition of the IgE-mediated passive cutaneous anaphylaxis (PCA) reaction in rat after oral administration; NA means inactive at 1 and 10 mg/Kg. The class given is functional, organism-based.
The test system of test [3] is Rattus norvegicus. The test can be described thus: Inhibition of the IgE-mediated passive cutaneous anaphylaxis (PCA) reaction in rat after oral administration; Inactive at 1 and 10 mg/kg. The class given is functional, organism-based. Also noted: dose 10 mg/kg.
The subject of test [4] is Rattus norvegicus. The test can be described thus: Inhibition of the IgE-mediated passive cutaneous anaphylaxis (PCA) reaction in rat after intravenous administration; Range 0.12-0.35. The format is functional.
Test [5] concerns Rattus norvegicus. The test is described as follows: Inhibition of the IgE-mediated passive cutaneous anaphylaxis (PCA) reaction in rat after intravenous administration; NA means inactive at 1 and 10 mg/Kg. The format is functional, organism-based.
In test [6] the test system is Rattus norvegicus. The test is described as follows: Inhibition of the IgE-mediated passive cutaneous anaphylaxis (PCA) reaction in rat after oral administration; Range 0.026-0.31. The format is functional.
For test [7], the system named is Rattus norvegicus. The test is described as follows: Inhibition of the IgE-mediated passive cutaneous anaphylaxis (PCA) reaction in rat after intravenous administration; Range 0.022-0.04. The format is functional.
The test system of test [8] is Rattus norvegicus. The test is described as follows: Inhibition of the IgE-mediated passive cutaneous anaphylaxis (PCA) reaction in rat after intravenous administration; Range 0.25-0.41. The format is functional.
In test [9] the test system is Rattus norvegicus. The test can be described thus: Inhibition of the IgE-mediated passive cutaneous anaphylaxis (PCA) reaction in rat after intravenous administration; Range 0.19-0.59. The format is functional.
Test [10] deals with Rattus norvegicus. The test can be described thus: Inhibition of the IgE-mediated passive cutaneous anaphylaxis (PCA) reaction in rat after intravenous administration; Range 0.24-1.05. The class given is functional.
For test [11], the system named is Rattus norvegicus. The test can be described thus: Inhibition of the IgE-mediated passive cutaneous anaphylaxis (PCA) reaction in rat after intravenous administration; Range 0.058-0.15. The class given is functional.
Test [12] relates to Rattus norvegicus. The test can be described thus: Inhibition of the IgE-mediated passive cutaneous anaphylaxis (PCA) reaction in rat after intravenous administration; Range 0.22-0.38. The class given is functional.
The subject of test [13] is Rattus norvegicus. The test is described as follows: Inhibition of the IgE-mediated passive cutaneous anaphylaxis (PCA) reaction in rat after intravenous administration; Range 0.91-3.86. The format is functional.
Test [14] has as its system Rattus norvegicus. The test can be described thus: Inhibition of the IgE-mediated passive cutaneous anaphylaxis (PCA) reaction in rat after oral administration; Range 4.38-21.4. The class given is functional.
In test [15] the test system is Rattus norvegicus. The test can be described thus: Inhibition of the IgE-mediated passive cutaneous anaphylaxis (PCA) reaction in rat after intravenous administration; Range 0.20-0.35. The format is functional.
For test [16], the system named is Rattus norvegicus. The test is described as follows: Inhibition of the IgE-mediated passive cutaneous anaphylaxis (PCA) reaction in rat after intravenous administration; Range 0.05-0.15. The class given is functional.
Test [17] has as its system Rattus norvegicus. The test is described as follows: Inhibition of the IgE-mediated passive cutaneous anaphylaxis (PCA) reaction in rat after oral administration; Range 0.3-10.04. The format is functional.
Test [18] concerns Rattus norvegicus. The test is described as follows: Inhibition of the IgE-mediated passive cutaneous anaphylaxis (PCA) reaction in rat after intravenous administration; NA means inactive. The format is functional, organism-based.
In test [19] the test system is Rattus norvegicus. The test can be described thus: Inhibition of the IgE-mediated passive cutaneous anaphylaxis (PCA) reaction in rat after oral administration; Range 1.22-2.52. The format is functional.
Test [20] concerns Rattus norvegicus. The test is described as follows: Inhibition of the IgE-mediated passive cutaneous anaphylaxis (PCA) reaction in rat after intravenous administration; […]. The class given is functional.
Test [21] concerns Rattus norvegicus. The test is described as follows: Inhibition of the IgE-mediated passive cutaneous anaphylaxis (PCA) reaction in rat after intravenous administration; Range 0.24-0.39. The format is functional.
Test [22] concerns Rattus norvegicus. The test is described as follows: Inhibition of the IgE-mediated passive cutaneous anaphylaxis (PCA) reaction in rat after oral administration; Range 0.29-0.4. The format is functional.
Test [23] relates to Rattus norvegicus. The test can be described thus: Inhibition of the IgE-mediated passive cutaneous anaphylaxis (PCA) reaction in rat after intravenous administration; Range 1.61-7. The class given is functional.
The subject of test [24] is Rattus norvegicus. The test can be described thus: Inhibition of the IgE-mediated passive cutaneous anaphylaxis (PCA) reaction in rat after oral administration; Inactive. The class given is functional, organism-based.
Test [25] concerns Rattus norvegicus. The test is described as follows: Inhibition of the IgE-mediated passive cutaneous anaphylaxis (PCA) reaction in rat after oral administration; Range 0.54-0.9. The class given is functional.
For test [26], the system named is Rattus norvegicus. The test is described as follows: Inhibition of the IgE-mediated passive cutaneous anaphylaxis (PCA) reaction in rat after intravenous administration; Range 0.057-0.091. The class given is functional.
Test [27] deals with Rattus norvegicus. The test can be described thus: Inhibition of the IgE-mediated passive cutaneous anaphylaxis (PCA) reaction in rat after intravenous administration; Range 0.13-0.26. The class given is functional.
For test [28], the system named is Rattus norvegicus. The test can be described thus: Inhibition of the IgE-mediated passive cutaneous anaphylaxis (PCA) reaction in rat after oral administration; Range 0.07-0.4. The class given is functional.
The subject of test [29] is Rattus norvegicus. The test can be described thus: Inhibition of the IgE-mediated passive cutaneous anaphylaxis (PCA) reaction in rat after intravenous administration; Range 0.021-0.033. The class given is functional.
The test system of test [30] is Rattus norvegicus. The test is described as follows: Inhibition of the IgE-mediated passive cutaneous anaphylaxis (PCA) reaction in rat after oral administration; NA means inactive 1 and 10 mg/kg. Also noted: dose 10 mg/kg. The class given is functional, organism-based.

As for `CCc1nc(C(=O)O)c2c(O)nc3ccccc3n12`, the ED50 entry in the test with Rattus norvegicus [1] is “inactive”.

With `NC(=O)c1cn2c(ccc3ccccc32)n1`, the ED50 result with Rattus norvegicus [2] is “inactive”.

Consider `O=C(O)c1cn2c(cnc3cc(Cl)c(Cl)cc32)n1`, for which the ED50 entry in the test on Rattus norvegicus [3] is “inactive”. Also, in the test on Rattus norvegicus [4], the ED50 was 0.2 mg/kg.

Consider `c1ccc2c(c1)OCc1nc(-c3nn[nH]n3)cn1-2`, for which the ED50 entry in the test with Rattus norvegicus [2] was “inactive”.

As to `O=C(O)Cc1cn2c(n1)COc1ccccc1-2`, in the test on Rattus norvegicus [5], the ED50 entry is “inactive”.

With `O=Cc1cn2c(ccc3ccccc32)n1`, the 50% effect level in the test on Rattus norvegicus [6] (ED50) was put at a dose of 0.093 mg/kg.

In the test with Rattus norvegicus [7], `CCn1c(=O)c2cc(C(=O)O)cn2c2cc(C)c(C)cc21` had an ED50 of 0.03 mg/kg.

`CCn1c(=O)c2nc(C(=O)Nc3nn[nH]n3)cn2c2ccccc21`: in the test with Rattus norvegicus [8], the 50% effect level (ED50) was put at a dose of 0.32 mg/kg.

Regarding `O=C(O)c1cn2c(n1)sc1ccccc12`, the 50% effect level in the test on Rattus norvegicus [9] (ED50) was put at a dose of 0.33 mg/kg.

In the case of `O=C(O)c1nc2n(c1C(=O)N1CCOCC1)-c1ccccc1OC2`, the ED50 result in the test on Rattus norvegicus [5] was “inactive”.

With `O=C(Nc1nn[nH]n1)c1cn2c(cnc3ccccc32)n1`, the ED50 in the test on Rattus norvegicus [10] is 0.45 mg/kg. For the same compound, the ED50 entry in the test on Rattus norvegicus [3] was “inactive”.

`CSc1ccc2ccc3nc(C(=O)O)cn3c2c1` had an ED50 in the test with Rattus norvegicus [11] of 0.095 mg/kg.

The compound `Cc1cc2sc3nc(C(=O)O)cn3c2cc1C` showed an ED50 in the test with Rattus norvegicus [12] of 0.3 mg/kg.

For `CC1Oc2ccccc2-n2cc(C(=O)O)nc21` (stereo unspecified), the ED50 with Rattus norvegicus [13] was 1.76 mg/kg; in the test on Rattus norvegicus [14], 8.46 mg/kg.

As for `O=C(O)c1cn2c(ccc3cc([N+](=O)[O-])ccc32)n1`, the 50% effect level with Rattus norvegicus [15] (ED50) was put at a dose of 0.28 mg/kg.

In the test on Rattus norvegicus [16], `CCc1ccc2c(Cl)cc3nc(C(=O)O)cn3c2c1` came in with an ED50 of 0.09 mg/kg.

Take `COc1ccc2ccc3nc(C(=O)Nc4nn[nH]n4)cn3c2c1`: the ED50 result in the test on Rattus norvegicus [1] was “inactive”.

As for `COC(=O)c1nc2n(c1CO)-c1ccccc1OC2`, the ED50 entry in the test with Rattus norvegicus [2] is “inactive”.

For the compound `CCOC(=O)c1cn2c(cc(Cl)c3ccc(Cl)cc32)n1`, in the test on Rattus norvegicus [17], it took a dose of 1.49 mg/kg to reach the 50% effect level (ED50).

`CCn1c(=O)c2ccccc2n2cc(C(=O)O)nc12`: in the test with Rattus norvegicus [18], the ED50 entry was “inactive”.

In the case of `O=C(O)c1cc2c(=O)n(C3CCCC3)c3ccccc3n2c1`, the ED50 in the test on Rattus norvegicus [19] worked out at 1.96 mg/kg; in the test on Rattus norvegicus [20], 0.037 mg/kg.

With `O=C(O)c1cn2c(n1)c(CO)cc1ccccc12`, the ED50 result in the test on Rattus norvegicus [1] is “inactive”.

With `CCOC(=O)c1cn2c(n1)c(C#N)cc1ccccc12`, in the test with Rattus norvegicus [2], the ED50 entry is “inactive”.

Turning to `COC(=O)c1nc2n(c1C(=O)O)-c1ccccc1OC2`, in the test on Rattus norvegicus [5], the ED50 result was “inactive”.

As for `O=C(O)c1cn2c(ccc3ccccc32)n1`, the ED50 is 0.3 mg/kg with Rattus norvegicus [21] and 0.34 mg/kg in the test with Rattus norvegicus [22].

As to `CCC1Oc2ccccc2-n2cc(C(=O)O)nc21` (stereo unspecified), in the test on Rattus norvegicus [23], the ED50 was determined as 2.6 mg/kg.

Consider `O=C(O)c1cn2c(cc(-c3ccccc3)c3cc(Cl)ccc32)n1`, for which the ED50 entry with Rattus norvegicus [3] is “inactive”.

Regarding `O=C(O)c1cc2ccc3ccccc3n2c1`, the ED50 entry in the test on Rattus norvegicus [1] is “inactive”.

Consider `CCOC(=O)c1cn2c3ccccc3c(=O)n(CC)c2n1`, for which, in the test on Rattus norvegicus [24], the ED50 result was “inactive”.

As to `O=C(O)c1cn2c(cnc3ccccc32)n1` [DAZOQUINAST], the ED50 amounted to 0.13 mg/kg in the test with Rattus norvegicus [25] and 0.073 mg/kg in the test on Rattus norvegicus [26].

Turning to `O=C(O)c1nc2n(c1C(=O)O)-c1ccccc1OC2`, the ED50 entry in the test on Rattus norvegicus [5] is “inactive”.

Turning to `CCn1c(=O)c2cc(C(=O)Nc3nn[nH]n3)cn2c2ccccc21`, it took a dose of 0.18 mg/kg to reach the 50% effect level in the test on Rattus norvegicus [27] (ED50).

Take `COc1ccc2c(Cl)cc3nc(C(=O)O)cn3c2c1`: the median effective dose (ED50) is 0.34 mg/kg in the test with Rattus norvegicus [28] and 0.027 mg/kg with Rattus norvegicus [29].

For `N#Cc1cn2c(n1)COc1ccccc1-2`, the ED50 result with Rattus norvegicus [30] is “inactive”.
